# Data from patent US20200399250A1, “Pyrimidine Derivatives as Tropomyosin Receptor Kinase A (TRKA) Inhibitors” (BIOMED X GMBH, priority 2017, published 2020).
# Key:
# TrkA = TrkA (Homo sapiens, UniProt P04629); test: KINOMEscan primary screen against TrkA; format: binding; conditions: % of control; for % Ctrl. TrkA @10 nM: 10 nM compound; for % Ctrl. TrkA @100 nM: 100 nM compound
# Experimental: (§1) Compounds were initially tested in a primary screen against TrkA (at 10 and 100 nM) and AurA (at 100 nM and 1 μM) using the KINOMEscan technology from DiscoverX Corporation, Fremont, Calif., USA (https://www.discoverx.com/services/drug-discovery-development-services/kinase-profiling/kinomescan).
# Results were reported as % of control (% Ctrl.=(test compound signal−positive control signal)/(DMSO signal−positive control signal). KINOMEscan is an active site-directed competition binding assay that quantitatively measures the ability of a compound to compete with an immobilized, active-site directed ligand.
# AurA = target: T1, AurA (Homo sapiens, UniProt O14965); test: KINOMEscan primary screen against AurA; format: binding; conditions: % of control; for % Ctrl. AurA @100 nM: 100 nM compound; for % Ctrl. AurA @1 μM: 1 μM compound
# T1 sequence (O14965 1-403): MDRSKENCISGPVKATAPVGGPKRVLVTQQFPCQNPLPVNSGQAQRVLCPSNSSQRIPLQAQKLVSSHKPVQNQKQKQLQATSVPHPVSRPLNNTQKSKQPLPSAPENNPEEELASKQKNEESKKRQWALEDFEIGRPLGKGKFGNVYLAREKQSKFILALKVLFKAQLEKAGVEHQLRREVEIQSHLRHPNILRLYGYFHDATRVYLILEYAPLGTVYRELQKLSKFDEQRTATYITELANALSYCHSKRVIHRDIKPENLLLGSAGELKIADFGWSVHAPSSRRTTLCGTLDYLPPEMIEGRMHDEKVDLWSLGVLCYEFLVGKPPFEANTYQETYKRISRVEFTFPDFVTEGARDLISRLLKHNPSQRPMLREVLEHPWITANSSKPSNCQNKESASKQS
# Experimental: as §1
# Sequence of TrkA (P04629 33-796): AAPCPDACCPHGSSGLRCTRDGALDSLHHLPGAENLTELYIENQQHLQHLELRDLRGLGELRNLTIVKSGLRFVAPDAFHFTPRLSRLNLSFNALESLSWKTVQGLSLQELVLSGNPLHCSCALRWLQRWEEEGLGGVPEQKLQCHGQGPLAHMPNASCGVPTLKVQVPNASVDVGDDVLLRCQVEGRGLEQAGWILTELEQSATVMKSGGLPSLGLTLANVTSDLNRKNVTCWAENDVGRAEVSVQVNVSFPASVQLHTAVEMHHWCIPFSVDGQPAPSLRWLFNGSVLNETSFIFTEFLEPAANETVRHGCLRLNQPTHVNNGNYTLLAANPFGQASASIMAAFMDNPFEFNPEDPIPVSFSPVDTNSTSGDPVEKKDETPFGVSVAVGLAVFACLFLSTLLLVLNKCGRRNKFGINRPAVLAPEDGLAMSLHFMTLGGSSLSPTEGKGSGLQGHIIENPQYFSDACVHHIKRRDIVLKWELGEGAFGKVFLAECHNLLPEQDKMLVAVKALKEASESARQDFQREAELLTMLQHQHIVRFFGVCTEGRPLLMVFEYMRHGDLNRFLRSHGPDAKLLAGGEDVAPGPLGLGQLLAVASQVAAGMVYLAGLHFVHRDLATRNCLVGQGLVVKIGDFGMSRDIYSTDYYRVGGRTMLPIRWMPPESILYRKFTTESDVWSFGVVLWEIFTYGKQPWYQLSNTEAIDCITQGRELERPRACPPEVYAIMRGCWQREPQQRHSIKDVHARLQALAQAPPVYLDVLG
Compound,% Ctrl. TrkA @10 nM (TrkA),% Ctrl. TrkA @100 nM (TrkA),% Ctrl. AurA @100 nM (AurA),% Ctrl. AurA @1 μM (AurA)
"Cc1cc(Nc2cc(N3CCN(C)CC3)nc(SCc3cccc4ccccc34)n2)n[nH]1 [b6, N-(5-methyl-1H-pyrazol-3-yl)-6-(4-methylpiperazin-1-yl)-2-[(naphthalen-1-ylmethyl)sulfanyl]pyrimidin-4-amine]",74 % Ctrl.,35 % Ctrl.,63 % Ctrl.,7.4 % Ctrl.
"Cc1cc(Nc2cc(N3CCN(C)CC3)nc(Sc3cccc(C(F)(F)F)c3)n2)n[nH]1 [b5, N-(5-methyl-1H-pyrazol-3-yl)-6-(4-methylpiperazin-1-yl)-2-{[3-(trifluoromethyl)phenyl]sulfanyl}pyrimidin-4-amine]",90 % Ctrl.,32 % Ctrl.,36 % Ctrl.,2.4 % Ctrl.
"Cc1cc(Nc2cc(N3CCN(C)CC3)nc(SCc3ccc(C)c(C)c3)n2)n[nH]1 [b3, 2-{[(3,4-dimethylphenyl)methyl]sulfanyl}-N-(5-methyl-1H-pyrazol-3-yl)-6-(4-methylpiperazin-1-yl)pyrimidin-4-amine]",53 % Ctrl.,11 % Ctrl.,46 % Ctrl.,4.5 % Ctrl.
"Cc1ccc(C)c(Sc2nc(Nc3cc(C)[nH]n3)cc(N3CCN(C)CC3)n2)c1 [b1, 2-[(2,5-dimethylphenyl)sulfanyl]-N-(5-methyl-1H-pyrazol-3-yl)-6-(4-methylpiperazin-1-yl)pyrimidin-4-amine]",80 % Ctrl.,11 % Ctrl.,7.3 % Ctrl.,0.5 % Ctrl.
"Cc1ccc(C)c(CSc2nc(Nc3cc(C)[nH]n3)cc(N3CCN(C)CC3)n2)c1 [b2, 2-{[(2,5-dimethylphenyl)methyl]sulfanyl}-N-(5-methyl-1H-pyrazol-3-yl)-6-(4-methylpiperazin-1-yl)pyrimidin-4-amine]",93 % Ctrl.,31 % Ctrl.,54 % Ctrl.,9.4 % Ctrl.
"CN1CCN(c2cc(Nc3cc(C(C)(C)C)[nH]n3)nc(Sc3ccccc3)n2)CC1 [a8, N-(5-tert-butyl-1H-pyrazol-3-yl)-6-(4-methylpiperazin-1-yl)-2-(phenylsulfanyl) pyrimidin-4-amine]",69 % Ctrl.,18 % Ctrl.,100 % Ctrl.,79 % Ctrl.
"Cc1cccc(Sc2nc(Nc3cc(C)[nH]n3)cc(N3CCN(C)CC3)n2)c1 [b4, N-(5-methyl-1H-pyrazol-3-yl)-2-[(3-methylphenyl)sulfanyl]-6-(4-methylpiperazin-1-yl)pyrimidin-4-amine]",50 % Ctrl.,6.7 % Ctrl.,2.6 % Ctrl.,0.1 % Ctrl.
"Cc1ccc(Sc2nc(Nc3cc(C)[nH]n3)cc(N3CCN(C)CC3)n2)c(C)c1 [b9, 2-[(2,4-dimethylphenyl)sulfanyl]-N-(5-methyl-1H-pyrazol-3-yl)-6-(4-methylpiperazin-1-yl)pyrimidin-4-amine]",77 % Ctrl.,24 % Ctrl.,51 % Ctrl.,3.8 % Ctrl.
"CN1CCN(c2cc(Nc3cc4ccccn4n3)nc(Sc3ccccc3)n2)CC1 [a3, 6-(4-methylpiperazin-1-yl)-2-(phenylsulfanyl)-N-(pyrazolo[1,5-a]pyridin-2-yl)pyrimidin-4-amine]",93 % Ctrl.,29 % Ctrl.,87 % Ctrl.,76 % Ctrl.
